Measured values published in patent publication US20100137449A1, “SUBSTITUTED 1,3-CYCLOPENTADIONE MULTI-TARGET PROTEIN KINASE MODULATORS OF CANCER, ANGIOGENESIS AND THE INFLAMMATORY PATHWAYS ASSOCIATED THEREWITH” (METAPROTEOMICS, LLC, priority 2007, published 2010).

Legend:
Experiment in all cases: KinaseProfiler Assay
PrKX(h) = biological target: T1, PrKX(h) (Homo sapiens, UniProt P51817)
T1 sequence (P51817 1-358): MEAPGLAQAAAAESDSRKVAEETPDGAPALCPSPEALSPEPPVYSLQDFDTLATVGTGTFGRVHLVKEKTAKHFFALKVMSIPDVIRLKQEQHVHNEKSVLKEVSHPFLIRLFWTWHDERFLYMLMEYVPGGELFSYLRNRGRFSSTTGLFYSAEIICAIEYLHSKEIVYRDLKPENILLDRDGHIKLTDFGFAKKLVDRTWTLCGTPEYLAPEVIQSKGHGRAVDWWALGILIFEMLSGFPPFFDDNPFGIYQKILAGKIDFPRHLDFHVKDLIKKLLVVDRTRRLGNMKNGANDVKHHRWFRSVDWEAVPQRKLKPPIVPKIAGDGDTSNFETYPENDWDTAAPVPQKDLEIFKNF

WNK3(h) = WNK3(h) (Homo sapiens, UniProt Q9BYP7)
CLK2(h) = CLK2(h) (Homo sapiens, UniProt P49760)
NEK2(h) = biological target: T2, NEK2(h) (Homo sapiens, UniProt P51955)
T2 sequence (P51955 1-445): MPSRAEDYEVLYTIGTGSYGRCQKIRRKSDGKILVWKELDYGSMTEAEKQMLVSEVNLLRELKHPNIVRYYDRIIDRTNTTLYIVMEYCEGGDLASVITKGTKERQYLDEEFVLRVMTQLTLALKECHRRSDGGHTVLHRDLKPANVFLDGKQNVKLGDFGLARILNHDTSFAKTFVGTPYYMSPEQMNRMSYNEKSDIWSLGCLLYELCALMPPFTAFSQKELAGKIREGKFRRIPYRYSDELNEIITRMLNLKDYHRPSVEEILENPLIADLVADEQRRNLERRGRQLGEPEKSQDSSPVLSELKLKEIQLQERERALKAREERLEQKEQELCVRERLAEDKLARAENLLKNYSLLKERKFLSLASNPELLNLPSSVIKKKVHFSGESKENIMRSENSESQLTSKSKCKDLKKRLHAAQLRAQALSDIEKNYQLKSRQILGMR

PKCβI(h) = PKCβI(h) (Homo sapiens, UniProt P05771)
cKit(V560G)(h) = cKit(V560G)(h) (Homo sapiens, UniProt P10721, V560G)
Tie2(h) = Tie2(h) (Homo sapiens, UniProt Q02763)
P70S6K(h) = P70S6K(h) (Homo sapiens, UniProt P23443)
cKit(D816V)(h) = cKit(D816V)(h) (Homo sapiens, UniProt P10721, D816V)
MAPKAP-K3(h) = MAPKAP-K3(h) (Homo sapiens, UniProt Q16644)
TrkB(h) = TrkB(h) (Homo sapiens, UniProt Q16620)
TrkB(h), sequence (Q16620 32-822): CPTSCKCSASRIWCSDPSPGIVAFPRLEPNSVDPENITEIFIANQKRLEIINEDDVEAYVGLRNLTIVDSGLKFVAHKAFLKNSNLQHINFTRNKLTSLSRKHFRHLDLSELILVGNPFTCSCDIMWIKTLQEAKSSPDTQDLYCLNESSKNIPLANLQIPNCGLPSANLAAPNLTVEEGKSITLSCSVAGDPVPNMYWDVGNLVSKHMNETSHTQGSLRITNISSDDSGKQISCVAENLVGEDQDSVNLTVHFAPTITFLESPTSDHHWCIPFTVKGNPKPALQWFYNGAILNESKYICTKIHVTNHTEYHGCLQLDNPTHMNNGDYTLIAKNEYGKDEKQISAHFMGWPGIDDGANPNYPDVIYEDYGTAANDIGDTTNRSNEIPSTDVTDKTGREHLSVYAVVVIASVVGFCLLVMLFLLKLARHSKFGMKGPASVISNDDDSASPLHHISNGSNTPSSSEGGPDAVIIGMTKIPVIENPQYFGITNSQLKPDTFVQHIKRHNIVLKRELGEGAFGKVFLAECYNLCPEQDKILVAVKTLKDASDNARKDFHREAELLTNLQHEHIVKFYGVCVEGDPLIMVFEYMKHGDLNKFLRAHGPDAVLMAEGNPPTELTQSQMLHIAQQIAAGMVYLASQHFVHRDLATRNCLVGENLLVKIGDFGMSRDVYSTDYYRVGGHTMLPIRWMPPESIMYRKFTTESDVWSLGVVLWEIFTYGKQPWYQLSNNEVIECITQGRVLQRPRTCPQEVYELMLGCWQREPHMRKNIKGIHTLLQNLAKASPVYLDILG

P70S6K(h), sequence (P23443 whole entry): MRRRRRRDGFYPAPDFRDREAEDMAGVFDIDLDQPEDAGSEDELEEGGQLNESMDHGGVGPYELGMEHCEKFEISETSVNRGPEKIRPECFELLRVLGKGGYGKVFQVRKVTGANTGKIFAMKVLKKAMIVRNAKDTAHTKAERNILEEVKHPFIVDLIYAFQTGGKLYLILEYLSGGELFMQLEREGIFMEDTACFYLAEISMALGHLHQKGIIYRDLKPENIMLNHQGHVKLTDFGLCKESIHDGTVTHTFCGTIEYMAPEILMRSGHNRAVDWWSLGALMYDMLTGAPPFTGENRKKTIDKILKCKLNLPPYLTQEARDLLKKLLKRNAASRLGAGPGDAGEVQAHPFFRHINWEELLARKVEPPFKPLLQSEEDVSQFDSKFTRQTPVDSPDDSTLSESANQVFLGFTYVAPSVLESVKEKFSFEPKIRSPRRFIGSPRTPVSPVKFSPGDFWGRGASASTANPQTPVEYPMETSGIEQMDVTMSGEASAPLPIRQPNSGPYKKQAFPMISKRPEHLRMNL
PKCβI(h), sequence (P05771 whole entry): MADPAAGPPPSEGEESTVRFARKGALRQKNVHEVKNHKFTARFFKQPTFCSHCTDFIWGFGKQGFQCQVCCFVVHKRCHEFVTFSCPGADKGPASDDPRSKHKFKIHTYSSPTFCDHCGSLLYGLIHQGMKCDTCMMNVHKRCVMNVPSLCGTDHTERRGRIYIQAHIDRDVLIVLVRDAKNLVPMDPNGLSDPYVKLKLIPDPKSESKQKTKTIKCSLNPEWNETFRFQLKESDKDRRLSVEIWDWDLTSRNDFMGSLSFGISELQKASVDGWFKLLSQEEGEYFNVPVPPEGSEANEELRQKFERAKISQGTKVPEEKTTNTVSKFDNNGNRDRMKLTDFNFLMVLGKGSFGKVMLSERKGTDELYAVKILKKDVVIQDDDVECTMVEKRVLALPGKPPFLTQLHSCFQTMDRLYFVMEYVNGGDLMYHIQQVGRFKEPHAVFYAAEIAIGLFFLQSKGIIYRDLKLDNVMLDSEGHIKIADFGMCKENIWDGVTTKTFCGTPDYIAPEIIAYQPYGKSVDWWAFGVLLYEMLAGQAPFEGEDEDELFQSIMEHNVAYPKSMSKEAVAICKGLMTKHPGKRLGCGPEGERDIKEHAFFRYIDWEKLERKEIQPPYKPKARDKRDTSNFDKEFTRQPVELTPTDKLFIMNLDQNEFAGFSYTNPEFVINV
cKit(D816V)(h), sequence (P10721 26-976 D816V): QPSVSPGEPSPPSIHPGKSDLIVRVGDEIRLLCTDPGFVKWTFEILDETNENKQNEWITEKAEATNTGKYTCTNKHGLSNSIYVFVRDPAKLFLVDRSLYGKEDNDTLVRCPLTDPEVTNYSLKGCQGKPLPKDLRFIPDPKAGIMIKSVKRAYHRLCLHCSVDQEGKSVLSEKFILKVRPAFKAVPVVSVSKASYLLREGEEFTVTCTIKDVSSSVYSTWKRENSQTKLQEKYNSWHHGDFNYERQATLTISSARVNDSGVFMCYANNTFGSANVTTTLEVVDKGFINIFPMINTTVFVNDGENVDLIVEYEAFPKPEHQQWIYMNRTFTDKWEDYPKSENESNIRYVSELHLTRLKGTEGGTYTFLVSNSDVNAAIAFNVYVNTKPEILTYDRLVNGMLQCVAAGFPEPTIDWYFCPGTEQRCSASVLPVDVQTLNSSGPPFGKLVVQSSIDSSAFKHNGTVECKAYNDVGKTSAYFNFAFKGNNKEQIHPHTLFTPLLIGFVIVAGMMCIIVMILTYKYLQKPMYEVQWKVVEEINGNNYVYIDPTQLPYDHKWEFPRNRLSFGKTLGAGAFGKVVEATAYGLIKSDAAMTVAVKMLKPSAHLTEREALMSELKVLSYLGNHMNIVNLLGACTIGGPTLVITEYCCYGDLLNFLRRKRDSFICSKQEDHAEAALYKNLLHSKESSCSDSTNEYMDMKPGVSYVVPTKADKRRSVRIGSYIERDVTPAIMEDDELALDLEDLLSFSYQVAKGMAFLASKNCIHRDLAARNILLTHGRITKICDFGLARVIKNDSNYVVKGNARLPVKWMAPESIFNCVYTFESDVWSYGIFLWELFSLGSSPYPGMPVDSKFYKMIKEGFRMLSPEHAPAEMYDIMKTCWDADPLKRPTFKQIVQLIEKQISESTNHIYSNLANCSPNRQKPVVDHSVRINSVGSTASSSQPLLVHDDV
Tie2(h), sequence (Q02763 23-1124): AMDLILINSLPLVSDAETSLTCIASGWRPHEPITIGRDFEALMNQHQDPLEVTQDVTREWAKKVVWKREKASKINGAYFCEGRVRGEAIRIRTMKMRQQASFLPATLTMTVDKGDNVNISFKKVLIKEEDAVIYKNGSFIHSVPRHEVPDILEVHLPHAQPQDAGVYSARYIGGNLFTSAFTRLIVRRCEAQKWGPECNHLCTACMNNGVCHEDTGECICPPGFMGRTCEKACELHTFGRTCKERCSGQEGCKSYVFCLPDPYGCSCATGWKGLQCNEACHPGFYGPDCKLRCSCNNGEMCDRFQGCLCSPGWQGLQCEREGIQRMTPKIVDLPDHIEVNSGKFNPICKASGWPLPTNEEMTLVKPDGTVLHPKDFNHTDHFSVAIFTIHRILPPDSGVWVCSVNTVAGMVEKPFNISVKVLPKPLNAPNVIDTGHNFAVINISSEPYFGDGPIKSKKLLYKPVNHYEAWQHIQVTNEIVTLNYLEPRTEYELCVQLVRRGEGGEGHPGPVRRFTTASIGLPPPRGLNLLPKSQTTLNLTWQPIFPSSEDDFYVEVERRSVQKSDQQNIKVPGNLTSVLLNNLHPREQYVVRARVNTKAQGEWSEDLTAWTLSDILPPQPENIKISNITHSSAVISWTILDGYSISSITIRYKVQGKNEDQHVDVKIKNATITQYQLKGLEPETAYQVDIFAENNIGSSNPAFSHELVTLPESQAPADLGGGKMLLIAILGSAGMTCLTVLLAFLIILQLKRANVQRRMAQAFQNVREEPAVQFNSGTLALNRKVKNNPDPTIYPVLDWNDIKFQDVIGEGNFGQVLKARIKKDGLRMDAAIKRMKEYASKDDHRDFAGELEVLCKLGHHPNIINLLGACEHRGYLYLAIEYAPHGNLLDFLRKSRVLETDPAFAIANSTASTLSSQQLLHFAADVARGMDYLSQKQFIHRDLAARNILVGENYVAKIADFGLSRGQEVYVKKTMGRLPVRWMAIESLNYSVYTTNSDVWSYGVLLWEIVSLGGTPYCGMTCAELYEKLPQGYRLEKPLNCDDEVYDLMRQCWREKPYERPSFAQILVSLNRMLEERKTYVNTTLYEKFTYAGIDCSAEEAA
cKit(V560G)(h), sequence (P10721 26-976 V560G): as the sequence (P10721 26-976 D816V) above, with V535G, V791D counted along it
MAPKAP-K3(h), sequence (Q16644 whole entry): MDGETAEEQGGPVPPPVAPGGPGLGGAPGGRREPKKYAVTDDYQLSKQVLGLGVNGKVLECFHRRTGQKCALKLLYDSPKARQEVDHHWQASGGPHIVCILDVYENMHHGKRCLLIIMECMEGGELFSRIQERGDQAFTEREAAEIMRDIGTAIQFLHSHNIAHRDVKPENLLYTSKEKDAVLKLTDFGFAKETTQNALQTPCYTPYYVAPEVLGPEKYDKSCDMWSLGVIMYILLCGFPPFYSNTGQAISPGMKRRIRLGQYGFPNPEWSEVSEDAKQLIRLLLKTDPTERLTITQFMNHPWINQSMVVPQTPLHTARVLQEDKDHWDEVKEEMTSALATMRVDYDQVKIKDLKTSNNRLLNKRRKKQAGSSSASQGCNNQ
CLK2(h), sequence (P49760 whole entry): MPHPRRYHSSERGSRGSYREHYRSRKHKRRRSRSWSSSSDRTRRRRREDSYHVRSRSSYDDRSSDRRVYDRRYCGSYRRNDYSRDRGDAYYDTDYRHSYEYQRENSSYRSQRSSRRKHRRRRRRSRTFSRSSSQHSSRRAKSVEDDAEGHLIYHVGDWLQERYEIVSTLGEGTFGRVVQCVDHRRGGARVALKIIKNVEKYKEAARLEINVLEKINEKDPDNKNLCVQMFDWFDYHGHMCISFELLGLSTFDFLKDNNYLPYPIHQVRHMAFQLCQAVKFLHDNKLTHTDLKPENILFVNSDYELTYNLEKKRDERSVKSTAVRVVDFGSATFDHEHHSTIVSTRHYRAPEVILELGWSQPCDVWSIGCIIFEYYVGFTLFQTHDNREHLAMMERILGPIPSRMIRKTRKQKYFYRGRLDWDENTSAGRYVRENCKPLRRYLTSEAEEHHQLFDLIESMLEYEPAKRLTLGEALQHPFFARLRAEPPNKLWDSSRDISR

CC(C)CCC(=O)[C@]1(O)C(O)=C(C(=O)C(C)C)C(=O)[C@H]1CCC(C)C [TH2, tetrahydroiso-cohumulone]
kinase inhibition (PrKX(h); 1 μg/ml): 101% of control | kinase inhibition (PrKX(h); 5 μg/ml): 103% of control | kinase inhibition (PrKX(h); 25 μg/ml): 98% of control | kinase inhibition (PrKX(h); 50 μg/ml): 88% of control | kinase inhibition (PrKX(h); 100 μg/ml): 66% of control | kinase inhibition (WNK3(h); 1 μg/ml): 111% of control | kinase inhibition (WNK3(h); 5 μg/ml): 113% of control | kinase inhibition (WNK3(h); 25 μg/ml): 109% of control | kinase inhibition (WNK3(h); 50 μg/ml): 113% of control | kinase inhibition (WNK3(h); 100 μg/ml): 111% of control | kinase inhibition (CLK2(h); 1 μg/ml): 103% of control | kinase inhibition (CLK2(h); 5 μg/ml): 100% of control | kinase inhibition (CLK2(h); 25 μg/ml): 110% of control | kinase inhibition (CLK2(h); 50 μg/ml): 101% of control | kinase inhibition (CLK2(h); 100 μg/ml): 96% of control | kinase inhibition (NEK2(h); 1 μg/ml): 106% of control | kinase inhibition (NEK2(h); 5 μg/ml): 109% of control | kinase inhibition (NEK2(h); 25 μg/ml): 105% of control | kinase inhibition (NEK2(h); 50 μg/ml): 102% of control | kinase inhibition (NEK2(h); 100 μg/ml): 72% of control | kinase inhibition (PKCβI(h); 1 μg/ml): 105% of control | kinase inhibition (PKCβI(h); 5 μg/ml): 110% of control | kinase inhibition (PKCβI(h); 25 μg/ml): 93% of control | kinase inhibition (PKCβI(h); 50 μg/ml): 95% of control | kinase inhibition (PKCβI(h); 100 μg/ml): 92% of control | kinase inhibition (cKit(V560G)(h); 1 μg/ml): 112% of control | kinase inhibition (cKit(V560G)(h); 5 μg/ml): 114% of control | kinase inhibition (cKit(V560G)(h); 25 μg/ml): 105% of control | kinase inhibition (cKit(V560G)(h); 50 μg/ml): 90% of control | kinase inhibition (cKit(V560G)(h); 100 μg/ml): 78% of control | kinase inhibition (Tie2(h); 1 μg/ml): 110% of control | kinase inhibition (Tie2(h); 5 μg/ml): 96% of control | kinase inhibition (Tie2(h); 25 μg/ml): 74% of control | kinase inhibition (Tie2(h); 50 μg/ml): 80% of control | kinase inhibition (Tie2(h); 100 μg/ml): 78% of control | kinase inhibition (P70S6K(h); 1 μg/ml): 108% of control | kinase inhibition (P70S6K(h); 5 μg/ml): 108% of control | kinase inhibition (P70S6K(h); 25 μg/ml): 108% of control | kinase inhibition (P70S6K(h); 50 μg/ml): 92% of control | kinase inhibition (P70S6K(h); 100 μg/ml): 69% of control | kinase inhibition (cKit(D816V)(h); 1 μg/ml): 109% of control | kinase inhibition (cKit(D816V)(h); 5 μg/ml): 105% of control | kinase inhibition (cKit(D816V)(h); 25 μg/ml): 98% of control | kinase inhibition (cKit(D816V)(h); 50 μg/ml): 82% of control | kinase inhibition (cKit(D816V)(h); 100 μg/ml): 87% of control | kinase inhibition (MAPKAP-K3(h); 1 μg/ml): 101% of control | kinase inhibition (MAPKAP-K3(h); 5 μg/ml): 100% of control | kinase inhibition (MAPKAP-K3(h); 25 μg/ml): 109% of control | kinase inhibition (MAPKAP-K3(h); 50 μg/ml): 104% of control | kinase inhibition (MAPKAP-K3(h); 100 μg/ml): 101% of control | kinase inhibition (TrkB(h); 1 μg/ml): 136% of control | kinase inhibition (TrkB(h); 5 μg/ml): 132% of control | kinase inhibition (TrkB(h); 25 μg/ml): 144% of control | kinase inhibition (TrkB(h); 50 μg/ml): 118% of control | kinase inhibition (TrkB(h); 100 μg/ml): 78% of control
